Laboratory results taken from ChEMBL document CHEMBL1135453, “Inhibition of feline immunodeficiency virus (FIV) replication by DNA binding polyamides” (2002).

What was measured:
Format in all cases: functional
[1] = test system: Feline immunodeficiency virus; assay: Tested for the percentage decrease in replication of FIV-34TF10 at a concentration of 0.1 nM
[2] = test system: Feline immunodeficiency virus; assay: Effect on replication of FIV 34TF10env in chronically infected feline glial cell lines G355-5 at 1 nM conc; RT activity per ug/mL of protein concentration
[3] = test system: Feline immunodeficiency virus; assay: Effect on replication of FIV 34TF10 in chronically infected feline glial cell lines G355-5 at 0.01 nM conc; RT activity per ug/mL of protein concentration
[4] = test system: Feline immunodeficiency virus; assay: Effect on replication of FIV 34TF10 in chronically infected feline glial cell lines G355-5 at 0.1 nM conc; RT activity per ug/mL of protein concentration
[5] = test system: Feline immunodeficiency virus; assay: Effect on replication of FIV 34TF10 in chronically infected feline glial cell lines G355-5 at 0 nM conc; RT activity per ug/mL of protein concentration
[6] = test system: Feline immunodeficiency virus; assay: Effect on replication of FIV 34TF10 in chronically infected feline glial cell lines G355-5 at 10000 nM conc; RT activity per ug/mL of protein concentration
[7] = test system: Feline immunodeficiency virus; assay: Effect on replication of FIV 34TF10 in chronically infected feline glial cell lines G355-5 at 1000 nM conc; RT activity per ug/mL of protein concentration
[8] = test system: Feline immunodeficiency virus; assay: Effect on replication of FIV 34TF10 in chronically infected feline glial cell lines G355-5 at 100 nM conc; RT activity per ug/mL of protein concentration
[9] = test system: Feline immunodeficiency virus; assay: Effect on replication of FIV 34TF10 in chronically infected feline glial cell lines G355-5 at 10 nM conc; RT activity per ug/mL of protein concentration
[10] = test system: Feline immunodeficiency virus; assay: Effect on replication of FIV 34TF10 in chronically infected feline glial cell lines G355-5 at 1 nM conc; RT activity per ug/mL of protein concentration
[11] = test system: Feline immunodeficiency virus; assay: Effect on replication of FIV 34TF10env in chronically infected feline glial cell lines G355-5 at 0.01 nM conc; RT activity per ug/mL of protein concentration
[12] = test system: Feline immunodeficiency virus; assay: Effect on replication of FIV 34TF10env in chronically infected feline glial cell lines G355-5 at 0.1 nM conc; RT activity per ug/mL of protein concentration
[13] = test system: Feline immunodeficiency virus; assay: Effect on replication of FIV 34TF10env in chronically infected feline glial cell lines G355-5 at 0 nM conc; RT activity per ug/mL of protein concentration
[14] = test system: Feline immunodeficiency virus; assay: Effect on replication of FIV 34TF10env in chronically infected feline glial cell lines G355-5 at 10000 nM conc; RT activity per ug/mL of protein concentration
[15] = test system: Feline immunodeficiency virus; assay: Effect on replication of FIV 34TF10env in chronically infected feline glial cell lines G355-5 at 1000 nM conc; RT activity per ug/mL of protein concentration
[16] = test system: Feline immunodeficiency virus; assay: Effect on replication of FIV 34TF10env in chronically infected feline glial cell lines G355-5 at 100 nM conc; RT activity per ug/mL of protein concentration
[17] = test system: Feline immunodeficiency virus; assay: Effect on replication of FIV 34TF10env in chronically infected feline glial cell lines G355-5 at 10 nM conc; RT activity per ug/mL of protein concentration

Structure (SMILES) | Decrease [1] [%] | Reverse transcriptase activity [2] | Reverse transcriptase activity [3] | Reverse transcriptase activity [4] | Reverse transcriptase activity [5] | Reverse transcriptase activity [6] | Reverse transcriptase activity [7] | Reverse transcriptase activity [8] | Reverse transcriptase activity [9] | Reverse transcriptase activity [10] | Reverse transcriptase activity [11] | Reverse transcriptase activity [12] | Reverse transcriptase activity [13] | Reverse transcriptase activity [14] | Reverse transcriptase activity [15] | Reverse transcriptase activity [16] | Reverse transcriptase activity [17]
CN(C)CCCNC(=O)c1cc(NC(=O)c2cc(NC(=O)c3cc(NC(=O)c4ccccc4C(=O)O)cn3C)cn2C)cn1C | 75 | 1600 | 665 | 390 | 1200 | 950 | 480 | 490 | 475 | 800 | 2000 | 1990 | 1590 | 1800 | 2100 | 1900 | 1700
Cc1nc(N)sc1C(=O)Nc1cn(C)c(C(=O)Nc2cn(C)c(C(=O)NCCCN(C)C)n2)n1 | 75 | 2000 | 675 | 350 | 1025 | 950 | 500 | 550 | 475 | 800 | 2000 | 1500 | 2200 | 2100 | 1700 | 1800 | 1500
